Our source for the IC50 values is ChEMBL document CHEMBL3886864, “Heterocyclic resorcinol derivatives, preparation of same and cosmetic uses thereof” (2016).

For the experiment, the target named is T1, Polyphenol oxidase 1 (Agaricus bisporus, UniProt Q00024).
T1 sequence (Q00024 whole entry): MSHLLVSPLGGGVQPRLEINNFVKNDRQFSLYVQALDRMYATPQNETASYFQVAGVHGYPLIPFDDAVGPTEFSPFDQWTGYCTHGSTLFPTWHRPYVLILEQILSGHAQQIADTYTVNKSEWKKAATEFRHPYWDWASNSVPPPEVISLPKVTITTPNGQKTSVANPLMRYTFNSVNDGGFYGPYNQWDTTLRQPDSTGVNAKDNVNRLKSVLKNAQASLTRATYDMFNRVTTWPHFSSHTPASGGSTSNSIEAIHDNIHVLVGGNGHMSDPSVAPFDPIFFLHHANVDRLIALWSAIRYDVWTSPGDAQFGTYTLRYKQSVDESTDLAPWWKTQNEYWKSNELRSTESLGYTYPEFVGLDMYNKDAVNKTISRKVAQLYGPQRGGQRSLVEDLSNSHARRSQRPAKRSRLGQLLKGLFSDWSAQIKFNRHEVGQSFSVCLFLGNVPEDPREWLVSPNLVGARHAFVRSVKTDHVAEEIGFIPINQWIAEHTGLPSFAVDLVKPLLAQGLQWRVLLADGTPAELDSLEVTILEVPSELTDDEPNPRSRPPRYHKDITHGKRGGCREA
As to the kind of experiment: Inhibition Assay: Reader: Synergy HT program: tyrosinase 280-490 kinetics: kinetics over 45 minutes, reading at t=10 minutes, Tests in transparent 96-well plates, Phosphate buffer (pH 6.8), Enzyme: mushroom tyrosinase (T-3824, Sigma), Substrate: L-tyrosine (T-3754, Sigma), Positive control: Kojic acid (KA) (60890, Fluka) (reference inhibitor). Reference Molecules for the Test: Kojic acid: ….

Usually IC50 stands for the midpoint of a concentration-inhibition curve. Regarding `CC(c1cccnc1)c1ccc(O)cc1O` (stereo unspecified), the IC50 is 200 nM. For `CC(c1cccs1)c1ccc(O)cc1O` (stereo unspecified), the IC50 was found to be 90 nM. In the case of `CC(c1ccccn1)c1ccc(O)cc1O` (stereo unspecified), the IC50 worked out at 400 nM. With `CC(c1ccsc1)c1ccc(O)cc1O` (stereo unspecified), the IC50 turned out to be 80 nM. For the compound `CC(c1nccs1)c1ccc(O)cc1O` (stereo unspecified), the IC50 was 1500 nM. Regarding `CCCCc1ccc(O)cc1O` [RUCINOL], the IC50 was 1000 nM.
